# Experimental data: patent US9441024
# Conditions: disulfide bond; 38-membered ring
substance,measurement,value
C(disialo(aminoethylamide))/S1C(disialo)-SRIF28,"ring closure, yield after HPLC",58%
C(disialo)-C12 linker-SRIF14,"ring closure, yield after HPLC",61%
S1-2C(asialo)-SRIF28,"ring closure, yield after HPLC",55%
S1-2C(disialo)-SRIF28,"ring closure, yield after HPLC",58%
S1-3C(asialo)-SRIF28,"ring closure, yield after HPLC",52%
S1-3C(disialo)-SRIF28,"ring closure, yield after HPLC",63%
S1-4C(disialo)-SRIF28,"ring closure, yield after HPLC",57%
S1-5C(disialo)-SRIF28,"ring closure, yield after HPLC",76%
S1C(diGlcNAc)-SRIF28,"ring closure, yield after HPLC",60%
S1C(disialo (hexadecylamide))-SRIF28,"ring closure, yield after HPLC",89%
S1C(disialo(aminoethylamide))-SRIF28,"ring closure, yield after HPLC",73%
S1C(disialo)-SRIF28,"ring closure, yield after HPLC",59%
S1C(disialo).N19C(GlcNAc)-SRIF28,"ring closure, yield after HPLC",59%
